Counter-ions that a name gives are not always drawn.
How the values were obtained:
[1] = test system: cholesterol biosynthesis; assay: Test A: Inhibition of cholesterol biosynthesis from acetate in vitro; assay type: biochemical, male Wistar rat (liver microsome and sup fraction); conditions: for IC50: [2-^14 C]sodium acetate incorporation into nonsaponifiable lipids, 2 hours at 37° C., read-out: Inhibitory activities by Test A: I50 (molar concentration); for Relative activities by Test A: relative to the activity of CS-514 being evaluated to be 1
Protocol: Enzyme solution was prepared from liver of male Wistar rat billialy cannulated and discharged bile for over 24 hours. Liver was cut out at mid-dark and microsome and supernatant fraction which was precipitable with 40-80% of saturation of ammonium sulfate (sup fraction) were prepared from liver homogenate according to the modified method of Knauss et. al.; Kuroda, M., et. al., Biochim. Biophys. Acta, 489, 119 (1977). For assay of cholesterol biosynthesis, microsome (0.1 mg protein) and sup fraction (1.0 mg protein) were incubated for 2 hours at 37° C. in 200 μl of the reaction mixture containing ATP; 1 mM, Glutathione; 6 mM, Glucose-1-phosphate; 10 mM, NAD; 0.25 mM, NADP; 0.25 mM, CoA; 0.04 mM and 0.2 mM [2-^14 C]sodium acetate (0.2 μCi) with 4 μl of test compound solution dissolved in water or dimethyl sulfoxide. To stop reaction and saponify, 1 ml of 15% EtOH-KOH was added to the reactions and heated at 75° C. for 1 hour. […] Inhibitory activity of compounds was indicated with IC50.

[2] = test system: cholesterol biosynthesis in Hep G2 cells; assay: Test B-1: Inhibition of cholesterol biosynthesis in culture cells (Hep G2); assay type: cell-based; conditions: for Relative activities by Test B-1: relative to the activity of CS-514 being evaluated to be 1
Protocol: Hep G2 cells at over 5th passage were seeded to 12 well plates and incubated with Dulbecco's modified Eagle (DME) medium containing 10% of fetal bovine serum (FBS) at 37° C., 5% CO2 until cells were confluent for about 7 days. Cells were exposed to the DME medium containing 5% of lipoprotein deficient serum (LpDS) prepared by ultracentrifugation method for over 24 hours. Medium was changed to 0.5 ml of fresh 5% LpDS containing DME before assay and 10 μl of test compound solution dissolved in water or DMSO were added. 0.2 μCi of [2-^14 C]sodium acetate (20 μl) was added at 0 hr(B-1) or 4 hrs(B-2) after addition of compounds. After 4 hrs further incubation with [2-^14 C]sodium acetate, medium was removed and cells were washed with phosphate buffered saline(PBS) chilled at 4° C. Cells were scraped with rubber policeman and collected to tubes with PBS and digested with 0.2 ml of 0.5 N KOH at 37° C. Aliquot of digestion was used for protein analysis and remaining was saponified with 1 ml of 15% EtOH--KOH at 75° C. for 1 hour. […] Counts were revised by cell protein and indicated with DPM/mg protein. Inhibitory activity of compounds was indicated with IC50.

Structure (SMILES) | IC50 [1] [nM] | Relative activities by Test A [1] | also measured
CC(C)c1nc2ccccc2c(-c2ccc(F)cc2)c1/C=C/C(O)CC(O)CC(=O)O (stereo not drawn) [I-51, Sodium salt of (E)-3,5-dihydroxy-7-[4'-(4"-fluorophenyl)-2'-(1"-methylethyl)-quinolin-3'-yl]-hept-6-enoic acid] | 10 |  | IC50 ([2]; Homo sapiens, HepG2, [2-^14 C]sodium acetate added at 0 hr after addition of compounds, 4 hrs incubation, read-out: Inhibitory activities by Test B-1: I50 (molar concentration)): 100 nM
CC(C)c1nc2c(Cl)cc(Cl)cc2c(-c2ccc(F)cc2)c1/C=C/C(O)CC(O)CC(=O)O (stereo not drawn) [I-522] |  | 0.76 | 
CCOC(=O)CC(O)CC(O)/C=C/c1c(C(C)C)nc2cc(OC)c(OC)cc2c1-c1ccc(F)cc1 (stereo not drawn) [I-116] |  | 2.25 | Relative activities by Test B-1 [2]: 19.4
Cc1nc2ccccc2c(-c2ccccc2)c1/C=C/C(O)CC(O)CC(=O)O (stereo not drawn) [I-53] | 190 |  | 
CC[C@H](C)C(=O)O[C@H]1C[C@H](O)C=C2C=C[C@H](C)[C@H](CC[C@@H](O)C[C@@H](O)CC(=O)O)[C@H]21 [CS-514, reference compound] | 9 |  | 
O=C(O)CC(O)CC(O)/C=C/c1c(C2CC2)nc2ccccc2c1-c1ccc(F)cc1 (stereo not drawn) [I-520] |  |  | Relative activities by Test B-1 [2]: 20.0
CCOC(=O)CC(O)CC(O)/C=C/c1c(C2CC2)nc2ccccc2c1-c1ccc(F)cc1 (stereo not drawn) [I-120] |  | 3.21 | 
CCOC(=O)CC(=O)CC(O)/C=C/c1c(C2CC2)nc2ccccc2c1-c1ccc(F)cc1 (stereo not drawn) [II-20] |  |  | Relative activities by Test B-1 [2]: 20.8
CCOC(=O)CC(O)CC(O)/C=C/c1c(CC)nc2ccccc2c1-c1ccc(F)cc1 (stereo not drawn) [I-117] |  | 0.37 | 
CCOC(=O)CC(O)CC(O)/C=C/c1c(C)nc2ccccc2c1-c1ccccc1 (stereo not drawn) [I-13] | 125 |  | 
Cc1nc2ccccc2c(-c2ccc(F)cc2)c1/C=C/C(O)CC(O)CC(=O)O (stereo not drawn) [I-52] | 71 |  | 
CC[C@H](C)C(=O)O[C@H]1C[C@@H](C)C=C2C=C[C@H](C)[C@H](CC[C@@H]3C[C@@H](O)CC(=O)O3)[C@H]21 [Mevinolin, reference compound] | 14 |  | 
CCOC(=O)CC(O)CC(O)/C=C/c1c(C(C)C)nc2ccc(Cl)cc2c1-c1ccccc1 (stereo not drawn) [I-16] |  | 1.75 | 
